Reference: a melting point compilation (Tetko et al.; mined from patent text by program, amines drawn as free bases though some values may be those of a salt)

Work on `COc1cc(N)c(Cl)cc1C(=O)N[C@@H]1CCN(CCCC(=O)N2CCCC2)C[C@H]1O` (relative stereo) yielded a melting point of 175 °C.
With `NS(=O)(=O)c1cccc(-c2cccc(-c3nc(-c4ccc(F)c(F)c4)cc(C(F)(F)F)n3)c2)c1` the melting point was 211 °C.
`CC(C)(C)OC(=O)CN1C(=O)C(N)C1CCc1ccco1` (stereo not given) showed a melting point of 85 to 87 °C.
`ClCc1ccnc(OCc2cn3c(Cl)cccc3n2)c1` showed a melting point of 118 to 119 °C.
Work on `COc1cc(O)c2c(c1)CCC1C2CCC2(C)C(=O)CCC12` (stereo not given) yielded a melting point of 220 to 222 °C.
`O=c1c2ccccc2[nH]c2c(OCCCCN(CCO)CCO)cccc12` showed a melting point of 124 to 126 °C.
Work on `CC(C)(C)c1ccc(S(=O)(=O)Oc2ccc(C(c3ccc(OS(=O)(=O)c4ccc(C(C)(C)C)cc4)cc3)(C(F)(F)F)C(F)(F)F)cc2)cc1` yielded a melting point of 177 to 180 °C.
For `COC(=O)Cc1cc(OC)ccc1O`, the melting point was 69 to 70 °C.
`CCCCc1ccc(COC(=O)NC2CN3CCC2CC3)cc1` (stereo not given) showed a melting point of 174 to 175 °C.
For `COc1cc(CC(C#N)=CNc2ccccc2)cc(OC)c1N(C)C(C)=O`, the melting point was 202 to 204 °C.
For `CCOc1ccc(-c2c(C)c3cc(O)ccc3n2Cc2ccc(OCCN3CCCCCC3)cc2)cc1`, the melting point was 133 to 135 °C.
Work on `CN1Cc2c(C#N)ncn2-c2ccccc2C1=O` yielded a melting point of 184 to 186 °C.
`O=P(O)(O)C(NCc1ccccc1)c1ccccc1` (stereo not given) showed a melting point of 233 to 236 °C.
With `Cc1cc(C)c(N2CCCc3c2[nH]n(C)c3=O)c(Cl)c1` the melting point was 95.9 to 99.9 °C.
Molecule `O=C1COc2ccc(C3=Cc4ccccc4SC3c3ccccc3)cc2N1` (stereo not given) has a melting point of 226 to 227 °C.
`COc1ccc(-c2c(C(C)=O)c(CBr)nc3cc(OC)c(OC)cc23)cc1OC` gave a melting point of 181 to 182 °C.
Work on `CCOC(=O)c1ccc2oc3ncccc3c(=O)c2c1` yielded a melting point of 131 to 132 °C.
In the case of `CCNC(=O)OC1CC(C)(C)N(OC(=O)NCC)C(C)(C)C1`, the melting point is reported as 149 to 151 °C.
`CCC(=O)N1CCN(C(=O)COC2c3ccccc3C(=O)N2c2ccc3ccc(OC)nc3n2)CC1` (stereo not given) gave a melting point of 160 °C.
In the case of `O=C1CCC2(F)C3Cc4ccc(O)c5c4C2(CCN3CC2CC2)C1O5` (stereo not given), the melting point is reported as 188 to 190 °C.
With `NS(=O)(=O)c1ccc(NN=C2C(=O)Nc3cc(Oc4ccccc4)ccc32)cc1` the melting point was over 250 °C.
`O=C(O)CCCOc1cccc(CCCCCCOc2ccc3c(c2C/C=C/c2ccccc2)CCCC3=O)c1CCC(=O)O` showed a melting point of 102 to 104 °C.
`CC1=NNC(c2ccc3c(c2)Nc2nccnc2S3)=NN1` gave a melting point of 233 to 235 °C.
`COc1ccc(Cn2c(N)c(NC(=O)C(C)C)c(=O)[nH]c2=S)cc1OCc1ccccc1` gave a melting point of 240 to 244 °C.
In the case of `O=C1c2c(c(=O)n3nc(-c4ccccc4)cc3n2Cc2ccccc2)CN1c1ccccc1`, the melting point is reported as 271 to 272 °C.
With `COc1ccc(C2=NN(C3CCN(C(=O)CS(C)(=O)=O)CC3)C(=O)[C@@H]3CC=CC[C@H]23)cc1OC` the melting point was 169 to 170 °C.
Work on `CN(CCCN1c2ccccc2CCc2ccccc21)c1ncccc1C(=O)O` yielded a melting point of 133 to 135 °C.
Work on `CN(CCc1ccccc1)C(=O)C(C)(Cc1c[nH]c2ccccc12)NC(=O)OC1C2CC3CC(C2)CC1C3` (stereo not given) yielded a melting point of 90 to 95 °C.
Work on `O=C(CCCC(=O)N1C(=O)OC[C@@H]1Cc1ccccc1)c1ccc(F)cc1` yielded a melting point of 114 °C.
In the case of `CC(C)Nc1c(-c2ccc(S(C)(=O)=O)cc2)cnn(CC(F)(F)F)c1=O`, the melting point is reported as 173 to 174 °C.
Work on `CC1(C)Cc2c(cc(C(C)(C)C)c(O)c2C(C)(C)C)S1` yielded a melting point of 79 °C.
`COc1ccc(SC)c2c1CC(=O)CC2` gave a melting point of 88 to 90 °C.
`Cc1ccc2nc(-c3ccccc3F)oc2n1` gave a melting point of 136 to 137 °C.
Work on `CCOC(=O)COc1cc2c(cc1Cl)C(=O)CC1(CCCCC1)O2` yielded a melting point of 116 to 117 °C.
`CCOC(=O)C(CCc1ccc2c(c1)OCO2)(Cc1cc(OC)c(OC)c(OC)c1)C(=O)OCC` gave a melting point of 79.5 to 81 °C.
Work on `Cc1cc(C#N)nc(Cl)n1` yielded a melting point of 57 °C.
Molecule `COC(=O)c1ccc(CSc2c(C(N)=O)sc3ccc(OC)cc23)cc1` has a melting point of 150 to 152 °C.
With `COC=C(C(=O)OC)c1ccccc1COc1ccccc1` the melting point was 60 °C.
Work on `COc1cc2c(c3c1OC(C)(C)C3)C(c1ccn(Cc3ccc(C(=O)NCCO)cc3)c(=O)c1)=NC(C)(C)C2` yielded a melting point of 220 to 222 °C.
`O=C(O)[C@H]1C[C@H](F)CN1` showed a melting point of 258 to 260 °C.
`O=C(NC[C@H]1CN(c2ccc(C3C=CS(=O)(=O)CC3)cc2)C(=O)O1)C(Cl)Cl` (stereo not given in full) gave a melting point of 159 to 161 °C.
In the case of `CCOC(=O)C1=C(C)Nc2snc(CCN3CCN(c4ccccc4)CC3)c2C1c1cccc([N+](=O)[O-])c1` (single isomer, unassigned; (+)), the melting point is reported as 148 to 149 °C.
In the case of `Cc1nc2cc(C(=O)NC3CC3)c(NC(=O)c3cc(C(F)(F)F)nn3-c3ncccc3Cl)c(Cl)c2n1C`, the melting point is reported as 233 to 235 °C.
In the case of `CCOC(=O)c1sc(NC(=O)c2cc(C(F)(F)F)cc(C(F)(F)F)c2)nc1C(F)(F)C(F)(F)F`, the melting point is reported as 154 to 155 °C.
In the case of `N#Cc1ccc(CC23CCNN2C(=O)N(c2cc(Cl)nc(Cl)c2)C3=O)cc1` (stereo not given), the melting point is reported as 187 °C.
`C[C@@H](S[C@H]1CC[C@H](/C=C/c2ccc(Cl)cc2)CC1)[C@](O)(Cn1cncn1)c1ccc(F)cc1F` showed a melting point of 64 to 66 °C.
`NC(Cc1ccccc1-c1ccc(C(=O)N2Cc3ccc(C(=O)NCc4cccnc4)n3Cc3ccccc32)cc1)=NO` showed a melting point of 131 to 134 °C.
With `Cc1nc2ccc(S(=O)(=O)n3c(COC(C)(C)C(=O)O)cc4cc(Cl)ccc43)cc2s1` the melting point was 172 to 174 °C.
Molecule `CCCC(=O)Nc1cc(/C=C/C(=O)N2CC(CCl)c3ccc(NC(=O)OCc4ccc([N+](=O)[O-])cc4)cc32)n(C)c1` (stereo not given) has a melting point of 207 to 210 °C.
In the case of `CC(C)(C)c1csc(-c2cc3cc(CO)ccc3o2)n1`, the melting point is reported as 143 to 144 °C.
In the case of `CCOC(=S)SCCC(=O)N1CCC[C@H]1C(=O)O`, the melting point is reported as 94 to 95 °C.
In the case of `Cc1cc(-c2cnn3c(C(F)(F)F)cc(-c4ccc(C(F)(F)F)c(F)c4)nc23)cc(C)n1`, the melting point is reported as 245 °C.
`Cc1ccc(C(=O)NC(NC(=NC#N)Nc2cncnc2)C(Cl)(Cl)Cl)cc1` (stereo not given) gave a melting point of 186 to 188 °C.
`Cc1ccc(-n2nc(C(F)F)cc2-c2ccc(S(C)(=O)=O)cc2)cc1Br` gave a melting point of 136 to 138 °C.
In the case of `O=c1[nH]c(=O)n(COC(CO)CO)cc1Cc1cccc(OCc2ccccc2)c1`, the melting point is reported as 113 °C.
Work on `COc1ccc(CN(CC(=O)O)c2nc(NC(=O)Nc3ccccc3OC)nc(Nc3ccccc3-c3ccccc3)n2)cc1` yielded a melting point of 147 to 149 °C.
`c1ccc(OCCCCN2CCNCC2)cc1` gave a melting point of 35 to 36 °C.
With `O=C(c1ccccc1)n1c2c(c3ccccc31)CC(C(=O)O)(C(=O)O)CC2` the melting point was 160 °C.
In the case of `COc1cc(OC)c(C(=O)n2cccc2Br)cc1OC`, the melting point is reported as 120 to 121 °C.
Work on `COc1nn(-c2cccc(N(C)C(C)=O)c2)c(=O)n(Cc2ccc(Cl)cc2)c1=O` yielded a melting point of 157 °C.
With `Cc1ccc(F)cc1NC(=O)c1cc([N+](=O)[O-])ccc1NC(=O)CF` the melting point was 217 to 219 °C.
In the case of `Cc1nc(-c2ccc(O)cc2)sc1C`, the melting point is reported as 194 to 195 °C.
With `CCOC(=O)c1[nH]c(C)c(CC(C)C)c1C` the melting point was 115 to 117 °C.
With `Nc1ncccc1OCc1c(F)cccc1F` the melting point was 124 to 128 °C.
With `Cc1ccc(C[C@@H]2CN(CCCN3C(=O)c4ccccc4C3=O)CCN2C(=O)c2cc(C(F)(F)F)cc(C(F)(F)F)c2)cc1C` the melting point was 146 to 147 °C.
In the case of `CCOCCOCCOCCOc1cc(OCCCCCCCCCCCCOc2ccccc2)cc(N(CC(=O)O)CC(=O)O)c1`, the melting point is reported as 58 to 61 °C.
In the case of `CCOC(=O)C1=C(C)NC(C)=C(C(=O)OCCN2CCN(C(c3ccc(C)cc3)c3ccc(C)cc3)CC2)C1c1cccc(C(F)(F)F)c1` (stereo not given), the melting point is reported as 74 to 77 °C.
For `O=C(OCC1CCCCCCCCCC1)n1c(-c2cscn2)nc2ccccc21`, the melting point was 86 to 87 °C.
`COCCc1ccc(OCC(O)C(C)(C)N)cc1` (stereo not given) gave a melting point of 120 to 122 °C.
Work on `Clc1ccc(C2=NCCc3c2ccc2ccccc32)cc1` yielded a melting point of 138 to 140 °C.
`Cn1nc(-c2ccccc2C=O)c2ccccc21` showed a melting point of 106 °C.
`C=CCNc1nc(NCC=C(C)C)c2scc(C)c2n1` gave a melting point of 114 to 115 °C.
Molecule `CNC(=O)CC1CN=C(c2cc3cc(Oc4ccc(S(C)(=O)=O)nc4)cc(OC(C)COC)c3[nH]2)S1` (stereo not given) has a melting point of 107 to 109 °C.
In the case of `COc1cc(OC)nc(C(CC2CC2)C(=O)NS(C)(=O)=O)n1` (stereo not given), the melting point is reported as 92 to 94 °C.
`CC(=O)c1ccc2c(c1)C(C(=O)Nc1cccc(C(=O)Nc3ccccc3)c1)C(=O)N2C` (stereo not given) gave a melting point of 178 to 179 °C.
Molecule `COC(=O)NC1CCc2sc(Cl)c(C(=O)CCC(=O)O)c2C1` (stereo not given) has a melting point of 178 to 179 °C.
Molecule `Cn1cc(C(=O)O)c2cccc(F)c21` has a melting point of 225 to 227 °C.
With `CCOC(=O)C(CCCCOc1ccccc1)C(=O)O` (stereo not given) the melting point was 69 to 72 °C.
`Cn1c2cc(Cl)ccc2c2c(C=O)nn(-c3ccccc3)c(=O)c21` gave a melting point of 235 to 236 °C.
Molecule `O=C(NCCCc1ccncc1)N(CCC(F)(F)F)CCC12CC3CC(CC(C3)C1)C2` has a melting point of 108 to 109 °C.
In the case of `O=C(NC(CO)Cc1ccc(O)cc1)OCC1CCCCC1` (stereo not given), the melting point is reported as 121 to 126 °C.
Molecule `CSCC(O)CN1C(=O)C(CCC(=O)O)(NC(=O)c2ccc(Cl)c(Cl)c2)c2ccccc21` (stereo not given) has a melting point of 168 to 170 °C.
With `Cc1ccc(-c2cc(C(O)/C=C/c3ccc(C(=O)O)cc3)cc3c2C(C)(C)CCC3(C)C)cc1` (stereo not given) the melting point was 179 °C.
Molecule `O=C(Nc1nnn[nH]1)c1cccc([N+](=O)[O-])c1Cl` has a melting point of 279 °C.
In the case of `CCCc1c(OCC(O)COc2ccc3c(=O)cc(C(=O)O)oc3c2CCC)ccc(C(C)=O)c1O` (stereo not given), the melting point is reported as 199 to 201 °C.
`O=C(NC1CCN(CC(O)c2ccccc2)CC1)c1ccccc1` (stereo not given) showed a melting point of 178 to 180 °C.
`CCOC(=O)Cc1cccc(Cn2ccc(OCc3ccc(F)cc3F)c(Br)c2=O)c1` gave a melting point of 95 to 98 °C.
In the case of `CCCCCCCCCCCC(=O)NC(=O)N1CC1C#N` (stereo not given), the melting point is reported as 140 to 143 °C.
In the case of `COc1ccc(-c2cnccn2)cc1`, the melting point is reported as 86 to 87 °C.
`O=C(NC1CCC1)c1ccc2nonc2c1` gave a melting point of 175 to 176 °C.
In the case of `CCC1(C)NC(=O)C(C)(CC)N1` (stereo not given), the melting point is reported as 58 to 64 °C.
For `C=CC(C)C1CCC2C3CCC4=CC(O)CCC4(C)C3CCC12C` (stereo not given), the melting point was 121 to 123 °C.
Molecule `CON(C)C(=O)C(CO[Si](C)(C)C(C)(C)C)NC(=O)OC(C)(C)C` (stereo not given) has a melting point of 71 to 72 °C.
Work on `CN1CCCC1=NCCSc1cc2ccccc2[nH]1` yielded a melting point of 175 to 177 °C.
In the case of `FC(F)(c1ccccc1)C(F)(F)c1ccc(Br)cc1`, the melting point is reported as 80 to 82 °C.
